Data as given in US4526891A, “Substituted alkyl amine derivatives of 6,11-dihydro-11-oxodibenz[b,e]oxepins” (Hoechst Roussel Pharmaceuticals Inc., priority 1983, dated 1985).
Where two headings read alike, the source gives them in different places.

Tested on: 2-phenyl-1,4-benzoquinone-induced writhing
Test: 2-phenyl-1,4-benzoquinone-induced writhing test in mice (analgesia)
Assay type: in vivo
Conditions: for ED50: Mus musculus
[1] = po, read-out: ED50 (dosage which exhibits 50% inhibition of writhing)

CCC(=O)O[C@](Cc1ccccc1)(c1ccccc1)[C@H](C)CN(C)C [propoxyphene, reference compound]
ED50 (sc, read-out: dose giving 50% inhibition of writhing (ED50)): 3.9 mg/kg

O=C1c2ccccc2COc2ccc(CCN3CCN(c4ccccc4)CC3)cc21 [1-[2-(6,11-Dihydro-11-oxodibenz[b,e]oxepin-2-yl)ethyl]-4-phenylpiperazine]
ED50 (oral dose, ** ED50, 50% inhibition, read-out: ED50 (dosage which exhibits 50% inhibition of writhing)): 25 mg/kg

CN(C)CCc1ccc2c(c1)C(=O)c1ccccc1CO2.Cl [2-(6,11-Dihydro-11-oxodibenz[b,e]oxepin-2-yl)-N,N-dimethylethylamine hydrochloride]
% Inhibition of writhing (25 mg/kg of body weight, subcutaneously (*)): 66%

CNCCc1ccc2c(c1)C(=O)c1ccccc1CO2.Cl [2-(6,11-Dihydro-11-oxodibenz[b,e]oxepin-2-yl)-N-methylethylamine hydrochloride]
ED50 [1]: 9.8 mg/kg

Cl.NCCc1ccc2c(c1)C(=O)c1ccccc1CO2 [2-(6,11-Dihydro-11-oxodibenz[b,e]oxepin-2-yl)ethylamine hydrochloride]
ED50 [1]: 7.4 mg/kg
